Assay results: PubChem BioAssay (NCI)
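Interpolation was linear, between the two tested concentrations surrounding the appropriate level; five concentrations were tested over 48 hours in 96-well plates. GI50: concentration for 50% inhibition of growth. TGI: total growth inhibition.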

Experiments:
Assay in all cases: NCI anticancer screen, dose series, 48 h
786-0 renal = tested on: 786-0 renal
A498 renal = tested on: A498 renal
A549 NSCLC = tested on: A549 NSCLC
ACHN renal = tested on: ACHN renal
BT-549 breast = tested on: BT-549 breast
CAKI-1 renal = tested on: CAKI-1 renal
CCRF-CEM leukemia = tested on: CCRF-CEM leukemia
COLO 205 colon = tested on: COLO 205 colon
DU-145 prostate = tested on: DU-145 prostate
EKVX NSCLC = tested on: EKVX NSCLC
HCC-2998 colon = tested on: HCC-2998 colon
HCT-116 colon = tested on: HCT-116 colon
HCT-15 colon = tested on: HCT-15 colon
HOP-62 NSCLC = tested on: HOP-62 NSCLC
HOP-92 NSCLC = tested on: HOP-92 NSCLC
HS 578T breast = tested on: HS 578T breast
HT29 colon = tested on: HT29 colon
IGROV1 ovarian = tested on: IGROV1 ovarian
K-562 leukemia = tested on: K-562 leukemia
KM12 colon = tested on: KM12 colon
LOX IMVI melanoma = tested on: LOX IMVI melanoma
M14 melanoma = tested on: M14 melanoma
MALME-3M melanoma = tested on: MALME-3M melanoma
MCF7 breast = tested on: MCF7 breast
MDA-MB-231 breast = tested on: MDA-MB-231 breast
MDA-MB-435 = tested on: MDA-MB-435
MDA-N = tested on: MDA-N
MOLT-4 leukemia = tested on: MOLT-4 leukemia
NCI-H226 lung = tested on: NCI-H226 lung
NCI-H23 lung = tested on: NCI-H23 lung
NCI-H460 lung = tested on: NCI-H460 lung
NCI-H522 lung = tested on: NCI-H522 lung
NCI/ADR-RES ovarian = tested on: NCI/ADR-RES ovarian
OVCAR-3 ovarian = tested on: OVCAR-3 ovarian
OVCAR-4 ovarian = tested on: OVCAR-4 ovarian
OVCAR-5 ovarian = tested on: OVCAR-5 ovarian
OVCAR-8 ovarian = tested on: OVCAR-8 ovarian
PC-3 prostate = tested on: PC-3 prostate
RPMI-8226 leukemia = tested on: RPMI-8226 leukemia
SF-268 CNS = tested on: SF-268 CNS
SF-295 CNS = tested on: SF-295 CNS
SK-MEL-2 melanoma = tested on: SK-MEL-2 melanoma
SK-MEL-28 melanoma = tested on: SK-MEL-28 melanoma
SK-MEL-5 melanoma = tested on: SK-MEL-5 melanoma
SK-OV-3 ovarian = tested on: SK-OV-3 ovarian
SN12C renal = tested on: SN12C renal
SNB-19 CNS = tested on: SNB-19 CNS
SNB-75 CNS = tested on: SNB-75 CNS
SR leukemia = tested on: SR leukemia
SW-620 colon = tested on: SW-620 colon
T-47D breast = tested on: T-47D breast
TK-10 renal = tested on: TK-10 renal
U251 CNS = tested on: U251 CNS
UACC-257 melanoma = tested on: UACC-257 melanoma
UACC-62 melanoma = tested on: UACC-62 melanoma
UO-31 renal = tested on: UO-31 renal
HL-60(TB) leukemia = tested on: HL-60(TB) leukemia
RXF 393 renal = tested on: RXF 393 renal
SF-539 CNS = tested on: SF-539 CNS

## C=COC(=O)N1C2CCCC(Cl)(C(C)=O)C1CC2 (stereo not given)
786-0 renal
  TGI: > 100 µM
A498 renal
  TGI: > 100 µM
A549 NSCLC
  TGI: > 100 µM
ACHN renal
  TGI: > 100 µM
BT-549 breast
  TGI: > 100 µM
CAKI-1 renal
  TGI: > 100 µM
CCRF-CEM leukemia
  TGI: > 100 µM
COLO 205 colon
  TGI: > 100 µM
DU-145 prostate
  TGI: > 100 µM
EKVX NSCLC
  TGI: > 100 µM
HCC-2998 colon
  TGI: > 100 µM
HCT-116 colon
  TGI: > 100 µM
HCT-15 colon
  TGI: > 100 µM
HOP-62 NSCLC
  TGI: > 100 µM
HOP-92 NSCLC
  TGI: > 100 µM
HS 578T breast
  TGI: > 100 µM
HT29 colon
  TGI: > 100 µM
IGROV1 ovarian
  TGI: > 100 µM
K-562 leukemia
  TGI: > 100 µM
KM12 colon
  TGI: > 100 µM
LOX IMVI melanoma
  TGI: > 100 µM
M14 melanoma
  TGI: > 100 µM
MALME-3M melanoma
  TGI: > 100000 nM
MCF7 breast
  TGI: > 100 µM
MDA-MB-231 breast
  TGI: > 100 µM
MDA-MB-435
  TGI: > 100 µM
MDA-N
  TGI: > 100 µM
MOLT-4 leukemia
  TGI: > 100 µM
NCI-H226 lung
  TGI: > 100 µM
NCI-H23 lung
  TGI: > 100 µM
NCI-H460 lung
  TGI: > 100 µM
NCI-H522 lung
  TGI: > 100 µM
NCI/ADR-RES ovarian
  TGI: > 100 µM
OVCAR-3 ovarian
  TGI: > 100000 nM
OVCAR-4 ovarian
  TGI: > 100 µM
OVCAR-5 ovarian
  TGI: > 100 µM
OVCAR-8 ovarian
  TGI: > 100 µM
PC-3 prostate
  TGI: > 100 µM
RPMI-8226 leukemia
  TGI: > 100 µM
SF-268 CNS
  TGI: > 100 µM
SF-295 CNS
  TGI: > 100 µM
SK-MEL-2 melanoma
  TGI: > 100 µM
SK-MEL-28 melanoma
  TGI: > 100 µM
SK-MEL-5 melanoma
  TGI: > 100 µM
SK-OV-3 ovarian
  TGI: > 100 µM
SN12C renal
  TGI: > 100 µM
SNB-19 CNS
  TGI: > 100 µM
SNB-75 CNS
  TGI: > 100 µM
SR leukemia
  TGI: > 100 µM
SW-620 colon
  TGI: > 100 µM
T-47D breast
  TGI: > 100 µM
TK-10 renal
  TGI: > 100 µM
U251 CNS
  TGI: > 100 µM
UACC-257 melanoma
  TGI: > 100 µM
UACC-62 melanoma
  TGI: > 100 µM
UO-31 renal
  TGI: > 100 µM

## C#CCOC(=O)[C@@H](C)c1ccc2cc(OC)ccc2c1
786-0 renal
  TGI: > 100 µM
A498 renal
  TGI: > 100 µM
ACHN renal
  TGI: > 100 µM
BT-549 breast
  TGI: > 100 µM
CAKI-1 renal
  TGI: > 100 µM
CCRF-CEM leukemia
  TGI: > 100 µM
COLO 205 colon
  TGI: > 100 µM
DU-145 prostate
  TGI: > 100 µM
EKVX NSCLC
  TGI: > 100 µM
HCT-116 colon
  TGI: > 100 µM
HCT-15 colon
  TGI: > 100 µM
HL-60(TB) leukemia
  TGI: 35.8 µM
HOP-62 NSCLC
  TGI: > 100 µM
HOP-92 NSCLC
  TGI: > 100 µM
HS 578T breast
  TGI: > 100 µM
IGROV1 ovarian
  TGI: > 100 µM
K-562 leukemia
  TGI: > 100 µM
KM12 colon
  TGI: > 100 µM
LOX IMVI melanoma
  TGI: > 100 µM
M14 melanoma
  TGI: > 100 µM
MCF7 breast
  TGI: > 100 µM
MDA-MB-231 breast
  TGI: > 100 µM
MDA-MB-435
  TGI: > 100 µM
MDA-N
  TGI: > 100 µM
MOLT-4 leukemia
  TGI: > 100 µM
NCI-H226 lung
  TGI: > 100 µM
NCI-H23 lung
  TGI: > 100 µM
NCI-H460 lung
  TGI: > 100 µM
NCI-H522 lung
  TGI: > 100 µM
NCI/ADR-RES ovarian
  TGI: > 100 µM
OVCAR-4 ovarian
  TGI: > 100 µM
OVCAR-5 ovarian
  TGI: > 100 µM
OVCAR-8 ovarian
  TGI: > 100 µM
PC-3 prostate
  TGI: > 100 µM
RPMI-8226 leukemia
  TGI: > 100 µM
RXF 393 renal
  TGI: > 100000 nM
SF-268 CNS
  TGI: > 100 µM
SF-295 CNS
  TGI: > 100 µM
SF-539 CNS
  TGI: > 100 µM
SK-MEL-2 melanoma
  TGI: > 100 µM
SK-MEL-5 melanoma
  TGI: > 100 µM
SK-OV-3 ovarian
  TGI: > 100 µM
SN12C renal
  TGI: > 100 µM
SNB-19 CNS
  TGI: > 100 µM
SNB-75 CNS
  TGI: > 100 µM
SR leukemia
  TGI: > 100 µM
SW-620 colon
  TGI: > 100 µM
T-47D breast
  TGI: > 100 µM
TK-10 renal
  TGI: > 100 µM
U251 CNS
  TGI: > 100 µM
UACC-257 melanoma
  TGI: > 100 µM
UACC-62 melanoma
  TGI: > 100 µM
UO-31 renal
  TGI: > 100 µM

## CCOC(=O)/C=C(/C(=O)OCC)n1ccc(=O)n(CC(=O)OCC)c1=O
786-0 renal
  TGI: 1.67 µM
A498 renal
  TGI: 28 µM
A549 NSCLC
  TGI: 16.8 µM
ACHN renal
  TGI: 1.76 µM
BT-549 breast
  TGI: 4.61 µM
CAKI-1 renal
  TGI: 0.32 µM
COLO 205 colon
  GI50: 361 nM
  TGI: 1.63 µM
DU-145 prostate
  TGI: 17.1 µM
EKVX NSCLC
  TGI: 4.87 µM
HCC-2998 colon
  TGI: 5.04 µM
HCT-116 colon
  TGI: 2.57 µM
HCT-15 colon
  TGI: 1.84 µM
HL-60(TB) leukemia
  GI50: 191 nM
  TGI: 0.483 µM
HOP-62 NSCLC
  TGI: 34.7 µM
HOP-92 NSCLC
  TGI: 1.46 µM
HS 578T breast
  TGI: 26.4 µM
HT29 colon
  TGI: 3.24 µM
IGROV1 ovarian
  TGI: 3.33 µM
K-562 leukemia
  TGI: 1.62 µM
KM12 colon
  TGI: 7.95 µM
LOX IMVI melanoma
  GI50: 422 nM
  TGI: 1.81 µM
M14 melanoma
  TGI: 2.73 µM
MALME-3M melanoma
  TGI: 1710 nM
MCF7 breast
  TGI: 1.84 µM
MDA-MB-231 breast
  TGI: 4.41 µM
MDA-MB-435
  TGI: 3.64 µM
MDA-N
  TGI: 8.31 µM
NCI-H226 lung
  TGI: 5.31 µM
NCI-H23 lung
  TGI: 3.77 µM
NCI-H460 lung
  TGI: 15.1 µM
NCI-H522 lung
  TGI: 0.624 µM
NCI/ADR-RES ovarian
  TGI: 8.14 µM
OVCAR-3 ovarian
  TGI: 2440 nM
OVCAR-5 ovarian
  TGI: 3.19 µM
OVCAR-8 ovarian
  TGI: 6.41 µM
PC-3 prostate
  TGI: 3.22 µM
RPMI-8226 leukemia
  GI50: 1770 nM
  TGI: 4.35 µM
RXF 393 renal
  TGI: 2520 nM
SF-268 CNS
  TGI: 10.9 µM
SF-295 CNS
  TGI: 28.1 µM
SF-539 CNS
  TGI: 7.88 µM
SK-MEL-2 melanoma
  TGI: 12.1 µM
SK-MEL-28 melanoma
  TGI: 3.32 µM
SK-MEL-5 melanoma
  TGI: 6.21 µM
SK-OV-3 ovarian
  TGI: 27.6 µM
SN12C renal
  GI50: 2000 nM
  TGI: 4.61 µM
SNB-19 CNS
  TGI: 25.4 µM
SNB-75 CNS
  TGI: 7.92 µM
SR leukemia
  TGI: 3.61 µM
SW-620 colon
  TGI: 0.707 µM
T-47D breast
  TGI: 2.55 µM
TK-10 renal
  TGI: 2.52 µM
U251 CNS
  TGI: 8.03 µM
UACC-257 melanoma
  TGI: 7.72 µM
UACC-62 melanoma
  TGI: 3.24 µM
UO-31 renal
  TGI: 3.03 µM
